Experimental findings from ChEMBL document CHEMBL3600362, “Synthesis of CNS active thyrotropin-releasing hormone (TRH)-like peptides: Biological evaluation and effect on cognitive impairment induced by cerebral ischemia in mice” (Bioorg Med Chem, 2015) are described below.

Calls of active or inactive are those of the source. No cut-off for these calls is given here.

The test system of data set [1] is Rattus norvegicus. Nature of the data set: Reduction in cognitive impairment in Sprague-Dawley rat assessed as reduction in latency to first entry to platform zone during retention trial at 10 umol/kg, iv measured on day 6 by Morris water maze test (reference value: 95.76 secs). The format is functional.
Data set [2] concerns the target T1, Thyrotropin-releasing hormone receptor 2 (Mus musculus, UniProt Q9ERT1).
T1 sequence (Q9ERT1 whole entry): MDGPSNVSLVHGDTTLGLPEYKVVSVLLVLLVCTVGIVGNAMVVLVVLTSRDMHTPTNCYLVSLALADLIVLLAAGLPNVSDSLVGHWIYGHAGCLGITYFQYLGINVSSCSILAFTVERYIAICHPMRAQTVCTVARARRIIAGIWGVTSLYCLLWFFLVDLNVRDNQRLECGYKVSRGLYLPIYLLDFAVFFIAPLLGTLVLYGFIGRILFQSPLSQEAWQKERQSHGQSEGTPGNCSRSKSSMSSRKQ
The data set is described as follows: Displacement of [3H]-1-MeHis-TRH from mouse TRH-R2 expressed in HEK293 cells incubated up to 4 hrs by scintillation counting method. It counts as cell-based. A general note: Loss of bound radioactivity is the signal in a displacement assay; it reports binding, not function.

Data set [3] has as its system Rattus norvegicus. Nature of the data set: Neuroprotective activity in Sprague-Dawley rat model of MCA occlusion-induced memory impairment assessed as maximum latency time during acquisition trial at 10 umol/kg, iv by passive avoidance test (reference value: 49 secs). It counts as functional.
Data set [4] has as its system Rattus norvegicus. Nature of the data set: Neuroprotective activity in Sprague-Dawley rat model of MCA occlusion-induced memory impairment assessed as minimum latency time during acquisition trial at 10 umol/kg, iv by passive avoidance test (reference value: 49 secs). It counts as functional.
In data set [5] the target is T1, Thyrotropin-releasing hormone receptor 2. The data set is described as follows: Agonist activity at mouse TRH-R2 expressed in HEK293 cells assessed as induction of changes in intracellular Ca2+ level by FLIPR method. The format is functional, cell-based.
Data set [6] deals with T2, Thyrotropin-releasing hormone-degrading ectoenzyme (Mus musculus, UniProt Q8K093).
T2 sequence (Q8K093 whole entry): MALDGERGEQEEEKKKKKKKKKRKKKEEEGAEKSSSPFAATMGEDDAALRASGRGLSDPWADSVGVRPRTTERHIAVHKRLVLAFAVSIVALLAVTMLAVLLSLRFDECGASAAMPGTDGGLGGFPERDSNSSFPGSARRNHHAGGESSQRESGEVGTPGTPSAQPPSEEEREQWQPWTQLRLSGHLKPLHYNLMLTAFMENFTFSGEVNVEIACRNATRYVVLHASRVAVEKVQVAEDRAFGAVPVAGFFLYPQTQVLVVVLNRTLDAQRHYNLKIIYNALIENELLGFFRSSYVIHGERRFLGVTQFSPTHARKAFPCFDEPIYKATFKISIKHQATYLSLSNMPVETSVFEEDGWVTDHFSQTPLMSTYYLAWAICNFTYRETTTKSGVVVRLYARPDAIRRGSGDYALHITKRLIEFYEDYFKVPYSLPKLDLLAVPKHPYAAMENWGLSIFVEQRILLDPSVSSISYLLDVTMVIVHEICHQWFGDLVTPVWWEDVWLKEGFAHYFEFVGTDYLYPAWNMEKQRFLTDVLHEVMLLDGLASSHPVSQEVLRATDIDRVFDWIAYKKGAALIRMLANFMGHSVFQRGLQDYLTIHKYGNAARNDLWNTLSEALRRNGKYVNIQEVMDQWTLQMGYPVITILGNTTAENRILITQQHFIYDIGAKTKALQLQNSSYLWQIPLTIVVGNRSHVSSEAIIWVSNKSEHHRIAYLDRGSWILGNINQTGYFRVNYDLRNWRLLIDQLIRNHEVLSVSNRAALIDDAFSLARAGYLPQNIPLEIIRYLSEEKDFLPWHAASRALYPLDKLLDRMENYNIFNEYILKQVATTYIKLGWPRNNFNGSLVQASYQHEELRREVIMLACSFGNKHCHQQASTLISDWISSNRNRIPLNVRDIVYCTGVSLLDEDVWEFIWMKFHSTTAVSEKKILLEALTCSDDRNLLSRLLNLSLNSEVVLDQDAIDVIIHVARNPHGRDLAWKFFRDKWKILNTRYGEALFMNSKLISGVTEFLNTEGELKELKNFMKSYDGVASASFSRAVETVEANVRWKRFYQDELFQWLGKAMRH
The data set is described as follows: Stability assessed as mouse recombinant TRH-degrading ectoenzyme-mediated compound degradation up to 18 hrs by HPLC method. The format is ADME.

Data set [7] relates to Rattus norvegicus. The data set is described as follows: Increase in neuronal survival in Sprague-Dawley rat model of MCA occlusion-induced focal cerebral ischemia assessed as increase in neuronal density at hippocampal CA1 regions at 10 umol/kg, iv by Cresyl violet staining based microscopy. The format is functional, organism-based.
The next data set relates to Mus musculus. The data set is described as follows: Reduction in pentobarbital-induced sleeping time in Swiss mouse at 10 umol/kg, iv. It counts as functional.
Data set [8] concerns Rattus norvegicus. The data set is described as follows: Reduction in volume of infarction in Sprague-Dawley rat model of MCA occlusion-induced focal cerebral ischemia assessed as infarcts volume at 10 umol/kg, iv administered immediately after reperfusion and measured 22 hrs after reperfusion (reference value: 237.69 +/- 4.08 mm3). It counts as functional.
Data set [9] concerns Rattus norvegicus. Nature of the data set: Effect on mean latency time during acquisition trial in Sprague-Dawley rat model of MCA occlusion-induced memory impairment at 10 umol/kg, iv by passive avoidance test. It counts as ADME, organism-based. The conditions noted are these: in vivo.
In data set [10] the target is T3, Thyrotropin-releasing hormone receptor (Mus musculus, UniProt P21761).
T3 sequence (P21761 whole entry): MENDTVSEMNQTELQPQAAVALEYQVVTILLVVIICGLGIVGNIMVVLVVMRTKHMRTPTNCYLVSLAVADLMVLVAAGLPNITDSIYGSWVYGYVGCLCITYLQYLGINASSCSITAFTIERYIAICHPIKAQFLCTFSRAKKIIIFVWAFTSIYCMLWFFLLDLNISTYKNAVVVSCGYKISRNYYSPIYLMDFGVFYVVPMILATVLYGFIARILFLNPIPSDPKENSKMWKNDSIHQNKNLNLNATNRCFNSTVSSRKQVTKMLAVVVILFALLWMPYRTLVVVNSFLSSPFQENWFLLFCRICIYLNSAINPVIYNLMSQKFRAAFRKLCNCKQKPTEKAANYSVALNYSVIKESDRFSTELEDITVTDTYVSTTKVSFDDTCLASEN
The data set is described as follows: Agonist activity at mouse TRH-R1 expressed in HEK293 cells assessed as induction of changes in intracellular Ca2+ level by FLIPR method. The format is functional, cell-based.

For data set [11], the system named is Rattus norvegicus. Nature of the data set: Reduction in cognitive impairment in Sprague-Dawley rat assessed as increase in number of entries to platform zone during retention trial at 10 umol/kg, iv measured on day 6 by Morris water maze test (reference value: 0.5). The format is functional.
Data set [12] relates to Rattus norvegicus. The data set is described as follows: Inhibition of lipid peroxidation in brain homogenates of Sprague-Dawley rat model of 2 hrs MCA occlusion-induced focal cerebral ischemia assessed as reduction in MDA levels at 10 umol/kg, iv administered immediately after reperfusion and measured 22 hrs after reperfusion by TBARS assay. The format is functional, organism-based.

Data set [13] relates to Rattus norvegicus. The data set is described as follows: Effect on mean latency time during retention trial in Sprague-Dawley rat model of MCA occlusion-induced memory impairment at 10 umol/kg, iv by passive avoidance test. The format is functional, organism-based.
Data set [14] relates to Rattus norvegicus. Nature of the data set: Reduction in neurological score in Sprague-Dawley rat model of MCA occlusion-induced focal cerebral ischemia at 10 umol/kg, iv administered immediately after reperfusion and measured 22 hrs after reperfusion up to 7 days. It counts as functional, organism-based.
A further data set concerns HEK293. Nature of the data set: Selectivity index, ratio of EC50 for agonist activity at mouse TRH-R1 expressed in HEK293 cells to EC50 for agonist activity at mouse TRH-R2 expressed in HEK293 cells. It counts as cell-based.
Data set [15] concerns the target T3, Thyrotropin-releasing hormone receptor. The data set is described as follows: Displacement of [3H]-1-MeHis-TRH from mouse TRH-R1 expressed in HEK293 cells incubated up to 4 hrs by scintillation counting method. It counts as cell-based.

Broadly, the IC50 is the concentration that inhibits the measured activity by half. Low values mean greater potency in that assay, high ones weaker potency in that assay. As a reminder, the EC50 is the concentration at which the effect is half-maximal. One may read the inhibition in vivo as the drop in the measured response relative to a control, in per cent. In the case of `NC(=O)[C@@H]1CCCN1C(=O)[C@H](Cc1nc(Br)[nH]c1Br)NC(=O)c1cnccn1`, the Time in the data set on Rattus norvegicus [1] came to 36.31 s; with Rattus norvegicus [3], 167 s; with Rattus norvegicus [4] it was 96 s. In addition, the IC50 in [2] and in data set [15] was > 50000 nM in each case. The concentration for a half-maximal effect (EC50) in data set [5] is 50 nM; in data set [10], 2540 nM. For the same compound, in data set [6], the Stability entry is listed as “Stable”. The outcome with Rattus norvegicus [7], with Rattus norvegicus [12], in the data set on Rattus norvegicus [13] and in the data set on Rattus norvegicus [14] was Active. Also, the inhibition in vivo at 10 µmol/kg with Mus musculus came to 74.8%. Besides, the Activity is reported as 196.08 mm3 in the data set on Rattus norvegicus [8], “Non-toxic” with Rattus norvegicus [9] and 2.25 in the data set on Rattus norvegicus [11]. Also, the Ratio EC50 in the data set with HEK293 stood at 50.8.
